# Patent US20230322865A1 (priority 2020, published 2023)
# Peptide text beside a SMILES is read from it. * marks the point of attachment. Propyl(2R-PamO,3-PamO) = CCCCCCCCCCCCCCCC(=O)OC[C@H](C*)OC(=O)CCCCCCCCCCCCCCC; Palmitoyl = CCCCCCCCCCCCCCCC(=O)*
# Experiments:
# [1] = test system: T-cells in PBMC of patients recovered from SARS-CoV-2 infection; format: cell-based, human
# [2] = test system: T-cells of donors never exposed to SARS-CoV-2; format: cell-based, human; conditions: IFN-γ ELISPOT, unexposed donors
# peptide-specific T-cells = experiment: Self-vaccination of a healthy volunteer with SARS-CoV-2-derived peptides, XS15 and Montanide; format: in vivo, human
# Excerpt: Development of antibody-dependent enhancement (ADE) antibodies has been identified as potential risk for infected patients after vaccination approaches; see Graham B S. Rapid COVID-19 vaccine development. Science. 2020. In contrast to other classical vaccines aiming to induce an antibody-response to prevent viral infections the CoVac-1 vaccine is designed to induce SARS-CoV-2 specific T-cells. […] Therefore, there is compared to other vaccine approaches only minimal risk of induction of ADE antibodies by the CoVac-1 vaccine.
# A more current report of self-vaccination of the same individual includes the administration of SARS-CoV-2-derived peptides performed in March 2020. Here, the self-experimenting healthy volunteer used eight SARS-CoV-2-derived peptides: five predicted to bind to HLA class I molecules (CD8 peptides) and three predicted to bind to HLA-DR molecules (CD4 peptides, including two peptides from the CoVac-1 vaccine). […] About 3 weeks after a single vaccination, using a vaccine containing the mentioned synthetic peptides, Montanide and containing 50 μg XS15, strong vaccine-induced CD4^+ T-cell responses against all […] HLA-DR peptides and against the recall CMV epitope could be detected. No T-cell responses against the five predicted SARS-CoV-2 HLA class I peptides could be detected by ex vivo Interferon-γ ELISpot assay. […]
# [3] = test system: peptide vaccine-specific T-cells; format: in vivo, human; conditions: after one injection, preliminary
# [4] = cited from earlier work
# [5] = XS15 emulsified in Montanide ISA 51 VG
Compound,SARS cohort frequency [%] [1] [%],SARS cohort pos/tested [1],PRE cohort frequency [%] [2] [%],PRE cohort pos/tested [2],antibody induction against vaccine peptide (peptide-specific T-cells),"Induction of T-cell responses against vaccine peptides, % of healthy volunteer (HV) and patients [3] [%]","Granuloma volume at injection site (ultrasound) ([4]; 80 μg XS15, days 17 and 41)",Ex vivo T-cell responses in peripheral blood detectable ([4]; single vaccination),Persistence of induced immune responses [5],Persistence of vaccinated peptides in granuloma on vaccination site [5]
"ASWFTALTQHGKEDL (SARS-CoV-2) [SEQ ID NO: 3, SARS-CoV-2 nucleocapsid-derived HLA-DR peptide]",59,13/22,6,1/18,–,–,–,–,–,–
ITRFQTLLALHRSYL [SEQ ID NO: 7],55,12/22,5,1/20,–,–,–,–,–,–
"LLLLDRLNQLESKMS (SARS-CoV-2) [SEQ ID NO: 4, SARS-CoV-2 nucleocapsid-derived HLA-DR peptide]",64,14/22,6,1/17,–,–,–,–,–,–
"RWYFYYLGTGPEAGL (SARS-CoV-2) [SEQ ID NO: 2, SARS-CoV-2 nucleocapsid-derived HLA-DR peptide]",73,16/22,6,1/18,–,–,–,–,–,–
CC(C)C[C@H](NC(=O)[C@@H](NC(=O)[C@H](CO)NC(=O)[C@H](Cc1ccc(O)cc1)NC(=O)[C@H](CC(=O)O)NC(=O)[C@H](C)NC(=O)[C@@H](N)C(C)C)C(C)C)C(=O)N[C@@H](Cc1ccc(O)cc1)C(=O)N[C@@H](CC(N)=O)C(=O)N[C@@H](CO)C(=O)N[C@@H](C)C(=O)N[C@@H](CO)C(=O)N[C@@H](Cc1ccccc1)C(=O)N[C@@H](CO)C(=O)N[C@H](C(=O)O)[C@@H](C)O [SEQ ID NO: 6],–,–,–,–,no antibody induction was observed,–,–,–,–,–
"FYVYSRVKNLNSSRV (SARS-CoV-2) [SEQ ID NO: 9, SARS-CoV-2 envelope protein-derived HLA-DR peptide]",50,11/22,11,2/19,–,–,–,–,–,–
"KDGIIWVATEGALNT (SARS-CoV-2) [SEQ ID NO: 1, SARS-CoV-2 nucleocapsid-derived HLA-DR peptide]",91,20/22,44,8/18,–,–,–,–,–,–
"CCCCCCCCCCCCCCCC(=O)N[C@@H](CSC[C@@H](COC(=O)CCCCCCCCCCCCCCC)OC(=O)CCCCCCCCCCCCCCC)C(=O)NCC(=O)N[C@@H](CC(=O)O)C(=O)N1CCC[C@H]1C(=O)N[C@@H](CCCCN)C(=O)N[C@@H](Cc1c[nH]cn1)C(=O)N1CCC[C@H]1C(=O)N[C@@H](CCCCN)C(=O)N[C@@H](CO)C(=O)N[C@@H](Cc1ccccc1)C(=O)O [XS15] (Palmitoyl-C(Propyl(2R-PamO,3-PamO))GDPKHPKSF-OH; C-terminus assumed)",–,–,–,–,–,100,about 8 ml,more than one year,more than 1.5 years,at least 7 weeks
SKWYIRVGARKSAPL [SEQ ID NO: 10],68,15/22,25,4/16,–,–,–,–,–,–
"ASAFFGMSRIGMEVT (SARS-CoV-2) [SEQ ID NO: 5, SARS-CoV-2 nucleocapsid-derived HLA-DR peptide]",52,12/23,6,1/18,–,–,–,–,–,–
